From patent US11180452B2, “Methods and compositions for selectively inhibiting pathogenic microbes” (priority 2019, dated 2021)
≈ marks a conversion by molar mass, not a printed value. Where “and” joins values, the source holds several entries; their conditions need not be identical. Equal entries are not always repeated. Where two headings read alike, the source gives them in different places.

Experiments:
Trichophyton rubrum = test: MIC against Trichophyton rubrum; format: cell-based; details: Trichophyton rubrum Castellani Sabouraud ATCC: 28188; read-out: MIC
NoSpin HepaRG cells = test: HepaRG cytotoxicity, MTT assay EC50; format: cell-based, human; details: Homo sapiens, HepaRG; cytotoxicity EC50, Table 9
Method: Additionally, the antimicrobial compounds were analyzed for cytotoxicity. […] We utilized the standard MTT assay (Promega CellTiter 96) and GraphPad Prism 7 software to determine EC50 values for each analogue. Briefly, 20,000 HepG2 cells in 200 μl of the ATCC recommended media were seeded in each well of a 96-well plate with a moisture barrier created in the outermost wells. The cells were allowed to attach overnight at 37° C., and then observed under phase contrast microscopy for proper morphological characteristics. […] Once incubations were complete, the spectrophotometric absorbance of the samples was measured at a wavelength of 595 nm. […] For the HepaRG assay, NoSpin HepaRG™ cells (Lonza, cat #NSHPRG) were thawed and plated with 20,000 cells per well. They were allowed to attach for 4 h (optimal DME profile per Lonza's testing) before dosing following the identical protocol as above.

Bacillus subtilis = Bacillus subtilis MIC / MBC; format: cell-based; details: for MBC: Bacillus subtilis NRRL: B-571, minimum bactericidal concentration; for MIC: Bacillus subtilis
Bacillus thuringiensis = format: cell-based; details: Bacillus thuringiensis Berliner ATCC: 10792; for MIC: Bacillus thuringiensis, read-out: MIC
[1] = system: Burkholderia thailandensis Brett et al ATCC: 700388; test: microbe, parasite or virus in culture; format: cell-based
Candida glabrata = Candida glabrata MIC / MFC; format: cell-based; details: Nakaseomyces glabratus, Candida glabrata #584 (Table 2); for MIC: read-out: MIC
[2] = system: Francisella tularensis subsp. Holarctica Strain LVSR NR-597; test: microbe, parasite or virus in culture; format: cell-based
N. gonorrhoeae = N. gonorrhoeae MIC; format: cell-based; details: Neisseria gonorrhoeae
[3] = system: Francisella tularensis strains; test: microbe, parasite or virus in culture; format: cell-based
[4] = Toxicity in mice, body weight over 7 days; format: in vivo, Balb/c mice; details: for Animal body weight (kg) Day 0 / Animal body weight (kg) Day 1 / Animal body weight (kg) Day 2 / Animal body weight (kg) Day 3 / Animal body weight (kg) Day 4 / Animal body weight (kg) Day 5 / Animal body weight (kg) Day 6 / Animal body weight (kg) Day 7: mice, IP; for Animal body weight (kg) Day 0: Day 0, individual animals; for Animal body weight (kg) Day 1: Day 1, individual animals; for Animal body weight (kg) Day 2: Day 2, individual animals; for Animal body weight (kg) Day 3: Day 3, individual animals; for Animal body weight (kg) Day 4: Day 4, individual animals; for Animal body weight (kg) Day 5: Day 5, individual animals; for Animal body weight (kg) Day 6: Day 6, individual animals; for Animal body weight (kg) Day 7: Day 7, individual animals
Source text: The vehicle is 40% PEG300 solution in 0.9% NaCl. […] Thus, the compounds are useful for in vivo antimicrobial administration.

[5] = Bacillus subtilis (Ehrenberg 1835) Cohn 1872 NRRL: B-571, read-out: MIC

Fc1ccc2[nH]cc(Sc3ccc(Br)cc3)c2c1 [Compound 174E, 3-((4-bromophenyl)thio)-5-fluoro-1H-indole]
MIC (Trichophyton rubrum): 2.01 µg/mL (≈ 6.24 µM)
EC50 (NoSpin HepaRG cells): 23.6 µg/mL (≈ 73.2 µM)
MBC (Bacillus subtilis): 3.13 µg/mL (≈ 9.71 µM)
MIC (Bacillus subtilis; [5]): 1.56 µg/mL (≈ 4.84 µM)
MBC (Bacillus thuringiensis): 3.13 µg/mL (≈ 9.71 µM)
MIC (Bacillus thuringiensis): 1.56 µg/mL (≈ 4.84 µM)
MIC [1]: > 50 µg/mL
MIC (Candida glabrata): 3.13 µg/mL (≈ 9.71 µM)
MIC [2]: 0.78 µg/mL (≈ 2.42 µM)
MIC (N. gonorrhoeae; strain #167): < 0.39 µg/mL
MIC (N. gonorrhoeae; strain #203): 1.56 µg/mL (≈ 4.84 µM)
MIC (N. gonorrhoeae; strain #205): 1.56 µg/mL (≈ 4.84 µM)

Oc1ccccc1Sc1c[nH]c2ccc(Br)cc12 [Compound 174AI, 2-((5-bromo-1H-indol-3-yl)thio)phenol]
EC50 (NoSpin HepaRG cells): 27.4 µg/mL (≈ 85.6 µM)
MBC (Bacillus subtilis): 6.25 µg/mL (≈ 19.5 µM)
MIC (Bacillus subtilis; [5]): 0.78 µg/mL (≈ 2.44 µM)
MIC (Bacillus subtilis; strain B-571 (Table 4), read-out: Bacillus subtilis MIC): 0.78 µg/mL (≈ 2.44 µM)
MIC (Bacillus subtilis; strain B-1985, read-out: Bacillus subtilis MIC): 0.78 µg/mL (≈ 2.44 µM)
MIC (Bacillus subtilis; strain B-3665, read-out: Bacillus subtilis MIC): 6.25 µg/mL (≈ 19.5 µM)
MIC (Bacillus subtilis; strain B-14322, read-out: Bacillus subtilis MIC): 3.13 µg/mL (≈ 9.77 µM)
MIC (Bacillus subtilis; strain B-41090, read-out: Bacillus subtilis MIC): 6.25 µg/mL (≈ 19.5 µM)
MIC (Bacillus subtilis; strain B-41581, read-out: Bacillus subtilis MIC): 6.25 µg/mL (≈ 19.5 µM)
MIC (Bacillus subtilis; strain BD-594, read-out: Bacillus subtilis MIC): 6.25 µg/mL (≈ 19.5 µM)
MBC (Bacillus thuringiensis): > 50 µg/mL
MIC (Bacillus thuringiensis): 0.78 µg/mL (≈ 2.44 µM)
MBC [1]: > 50 µg/mL
MIC [1]: 12.5 µg/mL (≈ 39 µM)
MFC (Candida glabrata; minimum fungicidal concentration, read-out: MFC): 25 µg/mL (≈ 78.1 µM)
MIC (Candida glabrata): 6.25 µg/mL (≈ 19.5 µM)
MIC [2]: 2 µg/mL (≈ 6.25 µM)
MIC (N. gonorrhoeae; strain #167): < 0.39 µg/mL
MIC50 [3]: 3 µg/mL (≈ 9.37 µM)
MIC ([3]; read-out: F. tularensis BSL-3 MIC, Strain 100): 6 µg/mL (≈ 18.7 µM)
MIC ([3]; read-out: F. tularensis BSL-3 MIC, strain HN-63): 2 µg/mL (≈ 6.25 µM)
MIC ([3]; read-out: F. tularensis BSL-3 MIC, strain LVS): 4 µg/mL (≈ 12.5 µM)
MIC ([3]; read-out: F. tularensis BSL-3 MIC, strain MA00-2987): 1.67 µg/mL (≈ 5.22 µM)
MIC ([3]; read-out: F. tularensis BSL-3 MIC, strain MO #1): 1.33 µg/mL (≈ 4.15 µM)
MIC ([3]; read-out: F. tularensis BSL-3 MIC, strain MO #2): 1.33 µg/mL (≈ 4.15 µM)
MIC ([3]; read-out: F. tularensis BSL-3 MIC, strain MO #3): 2 µg/mL (≈ 6.25 µM)
MIC ([3]; read-out: F. tularensis BSL-3 MIC, strain OR-96): 4 µg/mL (≈ 12.5 µM)
MIC ([3]; read-out: F. tularensis BSL-3 MIC, strain SCHU S4): 4 µg/mL (≈ 12.5 µM)
MIC ([3]; read-out: F. tularensis BSL-3 MIC, strain WY-96): 6 µg/mL (≈ 18.7 µM)
MIC ([3]; read-out: MAX, highest MIC over the Francisella tularensis strains): 6 µg/mL (≈ 18.7 µM)
MIC ([3]; read-out: MIN, lowest MIC over the Francisella tularensis strains): 1.33 µg/mL (≈ 4.15 µM)
toxicity in mice by body weight ([4]; 6-week-old Balb/c mice, body weight over 7 days, vehicle 40% PEG300 in 0.9% NaCl): did not have significant toxicity
Animal body weight (kg) Day 0 ([4]; 0.1 mg/kg, 0.1 mg/kg): 0.023 kg (2×) and 0.022 kg
Animal body weight (kg) Day 1 ([4]; 0.1 mg/kg, 0.1 mg/kg): 0.022 kg (2×) and 0.021 kg
Animal body weight (kg) Day 2 ([4]; 0.1 mg/kg, 0.1 mg/kg): 0.023 kg and 0.022 kg and 0.021 kg
Animal body weight (kg) Day 3 ([4]; 0.1 mg/kg, 0.1 mg/kg): 0.024 kg and 0.022 kg (2×)
Animal body weight (kg) Day 4 ([4]; 0.1 mg/kg, 0.1 mg/kg): 0.024 kg and 0.022 kg (2×)
Animal body weight (kg) Day 5 ([4]; 0.1 mg/kg, 0.1 mg/kg): 0.024 kg and 0.022 kg (2×)
Animal body weight (kg) Day 6 ([4]; 0.1 mg/kg, 0.1 mg/kg): 0.024 kg and 0.022 kg (2×)
Animal body weight (kg) Day 7 ([4]; 0.1 mg/kg, 0.1 mg/kg): 0.023 kg (2×) and 0.022 kg
Animal body weight (kg) Day 0 ([4]; 1 mg/kg, 1 mg/kg): 0.022 kg and 0.024 kg and 0.026 kg
Animal body weight (kg) Day 1 ([4]; 1 mg/kg, 1 mg/kg): 0.023 kg and 0.024 kg and 0.026 kg
Animal body weight (kg) Day 2 ([4]; 1 mg/kg, 1 mg/kg): 0.023 kg and 0.025 kg and 0.026 kg
Animal body weight (kg) Day 3 ([4]; 1 mg/kg, 1 mg/kg): 0.023 kg and 0.025 kg and 0.027 kg
Animal body weight (kg) Day 4 ([4]; 1 mg/kg, 1 mg/kg): 0.022 kg and 0.025 kg and 0.026 kg
Animal body weight (kg) Day 5 ([4]; 1 mg/kg, 1 mg/kg): 0.022 kg and 0.025 kg and 0.026 kg
Animal body weight (kg) Day 6 ([4]; 1 mg/kg, 1 mg/kg): 0.022 kg and 0.024 kg and 0.026 kg
Animal body weight (kg) Day 7 ([4]; 1 mg/kg, 1 mg/kg): 0.022 kg and 0.024 kg and 0.026 kg
Animal body weight (kg) Day 0 ([4]; 10 mg/kg, 10 mg/kg): 0.022 kg and 0.026 kg and 0.024 kg
Animal body weight (kg) Day 1 ([4]; 10 mg/kg, 10 mg/kg): 0.021 kg and 0.024 kg and 0.022 kg
Animal body weight (kg) Day 2 ([4]; 10 mg/kg, 10 mg/kg): 0.022 kg and 0.024 kg and 0.023 kg
Animal body weight (kg) Day 3 ([4]; 10 mg/kg, 10 mg/kg): 0.022 kg and 0.025 kg and 0.023 kg
Animal body weight (kg) Day 4 ([4]; 10 mg/kg, 10 mg/kg): 0.022 kg and 0.026 kg and 0.024 kg
Animal body weight (kg) Day 5 ([4]; 10 mg/kg, 10 mg/kg): 0.023 kg and 0.026 kg and 0.024 kg
Animal body weight (kg) Day 6 ([4]; 10 mg/kg, 10 mg/kg): 0.022 kg and 0.026 kg and 0.024 kg
Animal body weight (kg) Day 7 ([4]; 10 mg/kg, 10 mg/kg): 0.022 kg and 0.026 kg and 0.023 kg
